Reference: US10752587B2, “Homobispiperidinyl derivatives as liver X receptor beta agonists, compositions and their use” (Merck Sharp & Dohme Corp., priority 2015, dated 2020)

Experiments:
[1] = molecular target: T1, glutathione-S-transferase (GST) tagged LXRalpha LBD (ligand binding domain) (Homo sapiens, UniProt Q13133); experiment: LanthaScreen TR-FRET Liver X Receptor Coactivator Assay, co-activator recruitment to LXRalpha LBD; type: biochemical; conditions: for Emax: efficacy at max dose, in relation to reference dual agonist T0901317, read-out: LXR alpha Activity @ max dose (%); for LXR alpha IP (nM) / EC50: potency (Inflection Point, IP), co-activator recruitment to LXRalpha LBD, in relation to T0901317; for EC50: read-out: LXR alpha IP
T1 construct: purchased Invitrogen pv4655
T1 sequence (Q13133 209-447 limits assumed): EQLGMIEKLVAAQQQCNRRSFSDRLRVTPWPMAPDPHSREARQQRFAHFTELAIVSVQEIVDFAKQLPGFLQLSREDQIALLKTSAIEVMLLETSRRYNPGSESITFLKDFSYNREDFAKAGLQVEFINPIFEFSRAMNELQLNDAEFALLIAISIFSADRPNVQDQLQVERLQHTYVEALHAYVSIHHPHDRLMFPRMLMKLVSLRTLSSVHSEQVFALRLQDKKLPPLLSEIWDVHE
In short: (§1)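 LXRα- or LXRβ-LBD protein was added to test compounds, then fluorescein-labelled coactivator peptide plus Tb-anti-GST antibody; after room-temperature incubation, TR-FRET was read. Inflection point (IP) and Emax were expressed relative to the dual agonist reference T0901317.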

[2] = molecular target: T2, glutathione-S-transferase (GST) tagged LXRbeta LBD (ligand binding domain) (Homo sapiens, UniProt P55055); experiment: LanthaScreen TR-FRET Liver X Receptor Coactivator Assay, co-activator recruitment to LXRbeta LBD; type: biochemical; conditions: for Emax: efficacy at max dose, in relation to reference dual agonist T0901317, read-out: LXR beta Activity @ max dose (%); for EC50: potency (Inflection Point, IP), co-activator recruitment to LXRbeta LBD, in relation to T0901317, read-out: LXR beta IP
T2 construct: purchased Invitrogen pv4658.pps
T2 sequence (P55055 222-460 limits assumed): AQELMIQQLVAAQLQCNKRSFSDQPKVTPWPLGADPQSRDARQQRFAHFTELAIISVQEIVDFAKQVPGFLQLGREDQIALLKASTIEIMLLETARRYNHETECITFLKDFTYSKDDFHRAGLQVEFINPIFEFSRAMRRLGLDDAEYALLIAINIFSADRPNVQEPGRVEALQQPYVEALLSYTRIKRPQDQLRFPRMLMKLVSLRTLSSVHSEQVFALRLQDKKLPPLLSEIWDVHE
In short: as §1

Compound | Emax [1] [%] | LXR alpha IP (nM) [1] | Emax [2] [%] | EC50 [2] [nM] | EC50 [1] [nM]
CCOc1cccc([C@@](O)(C(=O)N2CCC(CC3(C)CCN(c4ccc(C(=O)N(C)C)c(C)n4)CC3)CC2)C(F)(F)F)c1 [Example 7-14, 6-[4-({1-[(2R)-2-(3-ethoxyphenyl)-3,3,3-trifluoro-2-hydroxypropanoyl]piperidin-4-yl}methyl)-4-methyl-piperidin-1-yl]-N,N,2-trimethylpyridine-3-carboxamide] | 0 | NO IP | 100 | 105 | –
COc1cccc([C@@](O)(C(=O)N2CCC(CC3CN(c4ccc(C(=O)N(C)C)c(C5CC5)n4)C3)CC2)C(F)(F)F)c1 [Example 7-15, 2-cyclopropyl-N,N-dimethyl-6-[3-({1-[(2R)-3,3,3-trifluoro-2-hydroxy-2-(3-methoxyphenyl)propanoyl]piperidin-4-yl}methyl)azetidin-1-yl]pyridine-3-carboxamide] | 0 | NO IP | 91 | 1430 | –
COc1cccc([C@@](O)(C(=O)N2CCC(CC3(C)CCN(c4ccc(C(=O)N(C)C)c(C)n4)CC3)CC2)C(F)(F)F)c1 [Example 7-16, N,N,2-trimethyl-6-[4-methyl-4-({1-[(2R)-3,3,3-trifluoro-2-hydroxy-2-(3-methoxyphenyl)propanoyl]piperidin-4-yl}methyl)piperidin-1-yl]pyridine-3-carboxamide] | 8 | NO IP | 65 | 66 | –
CCOc1cccc([C@@](O)(C(=O)N2CCC(CC3CN(c4ccc(C(=O)N(C)C)c(C5CC5)n4)C3)CC2)C(F)(F)F)c1 [Example 7-17, 2-cyclopropyl-6-[3-({1-[(2R)-2-(3-ethoxyphenyl)-3,3,3-trifluoro-2-hydroxypropanoyl]piperidin-4-yl}methyl)azetidin-1-yl]-N,N-dimethylpyridine-3-carboxamide] | 0 | NO IP | 36 | 1290 | –
COc1nc(N2CCC(CC3CCN(C(=O)[C@](O)(c4ccccc4)C(F)(F)F)CC3)CC2)ccc1C(=O)N(C)C [Example 7-18, 2-methoxy-N,N-dimethyl-6-[4-({1-[(2R)-3,3,3-trifluoro-2-hydroxy-2-phenylpropanoyl]piperidin-4-yl}methyl)piperidin-1-yl] pyridine-3-carboxamide] | 34 | – | 80 | 6 | 442
COc1cccc([C@@](O)(C(=O)N2CCC(CC3CCN(c4ccc(C(=O)N(C)C)c(OC)n4)CC3)CC2)C(F)(F)F)c1 [Example 7-19, 2-methoxy-N,N-dimethyl-6-[4-({1-[(2R)-3,3,3-trifluoro-2-hydroxy-2-(3-methoxyphenyl)propanoyl]piperidin-4-yl}methyl)piperidin-1-yl]pyridine-3-carboxamide] | 3 | NO IP | 61 | 7 | –
COc1nc(N2CCC(CC3CCN(C(=O)[C@](O)(c4cc(Cl)cc(Cl)c4)C(F)(F)F)CC3)CC2)ccc1C(=O)N(C)C [Example 7-20, 6-[4-({1-[(2R)-2-(3,5-dichlorophenyl)-3,3,3-trifluoro-2-hydroxypropanoyl]piperidin-4-yl}methyl)piperidin-1-yl]-2-methoxy-N,N-dimethylpyridine-3-carboxamide] | 29 | NO IP | 79 | 6 | –
COc1cccc([C@@](O)(C(=O)N2CC(CC3CCN(c4ccc(C(=O)N(C)C)c(OC)n4)CC3)C2)C(F)(F)F)c1 [Example 7-21, 2-methoxy-N,N-dimethyl-6-[4-[{1-[(2R)-3,3,3-trifluoro-2-hydroxy-2-(3-methoxyphenyl)propanoyl]azetidin-3-yl}methyl)piperidin-1-yl]pyridine-3-carboxamide] | 2 | NO IP | 70 | 169 | –
CCOc1cccc([C@@](O)(C(=O)N2CCC(CC3CN(c4ccc(C(=O)N(C)C)c(OC)n4)C3)CC2)C(F)(F)F)c1 [Example 7-22, 6-[3-({1-[(2R)-2-(3-ethoxyphenyl)-3,3,3-trifluoro-2-hydroxypropanoyl]piperidin-4-yl}methyl)azetidin-1-yl]-2-methoxy-N,N-dimethylpyridine-3-carboxamide] | 0 | NO IP | 45 | 1270 | –
COc1cccc([C@@](O)(C(=O)N2CCC(CC3CN(c4ccc(C(=O)N(C)C)c(OC)n4)C3)CC2)C(F)(F)F)c1 [Example 7-23, 2-methoxy-N,N-dimethyl-6-[3-({1-[(2R)-3,3,3-trifluoro-2-hydroxy-2-(3-methoxyphenyl)propanoyl]piperidin-4-yl}methyl)azetidin-1-yl]pyridine-3-carboxamide] | 0 | NO IP | 54 | 1230 | –
CCOc1cccc([C@@](O)(C(=O)N2CCC(CC3(C)CCN(c4ccc(C(=O)N(C)C)c(OC)n4)CC3)CC2)C(F)(F)F)c1 [Example 7-24] | 7 | NO IP | 106 | 92 | –
CNC(=O)c1ccc(N2CCC(CC3CCN(C(=O)[C@](O)(c4ccccc4)C(F)(F)F)CC3)CC2)cc1Cl [Example 7-25, 2-chloro-N-methyl-4-[4-({1-[(2R)-3,3,3-trifluoro-2-hydroxy-2-phenylpropanoyl]piperidin-4-yl}methyl)piperidin-1-yl]benzamide] | 44 | – | 77 | 20 | 343
CNC(=O)c1ccc(N2CCC(OC3CCN(C(=O)[C@](O)(c4ccccc4)C(F)(F)F)CC3)CC2)cc1Cl [Example 7-26, 2-chloro-N-methyl-4-[4-({1-[(2R)-3,3,3-trifluoro-2-hydroxy-2-phenylpropanoyl]piperidin-4-yl}oxy)piperidin-1-yl]benzamide] | 35 | – | 115 | 125 | 2260
CNC(=O)c1ccc(N2CCC(OC3CCN(C(=O)C4(c5ccccc5F)CCCC4)CC3)CC2)cc1Cl [Example 7-27, 2-chloro-4-{4-[(1-{[1-(2-fluorophenyl)cyclopentyl]carbonyl}piperidin-4-yl)oxy]piperidin-1-yl}-N-methylbenzamide] | 27 | – | 113 | 446 | 4390
CNC(=O)c1ccc(N2CCC(OC3CCN(C(=O)C(O)(c4cccc(C(F)(F)F)c4)C(F)(F)F)CC3)CC2)cc1Cl (stereo not shown) [Example 7-28, 2-chloro-N-methyl-4-{4-[(1-{3,3,3-trifluoro-2-hydroxy-2-[3-(trifluoromethyl)phenyl]propanoyl}piperidin-4-yl)oxy]piperidin-1-yl} benzamide] | 28 | – | 105 | 243 | 2020
CNC(=O)c1ccc(N2CCC(OC3CCN(C(=O)C(O)(c4cccc(C)c4)C(F)(F)F)CC3)CC2)cc1Cl (stereo not shown) [Example 7-29, 2-chloro-N-methyl-4-[4-({1-[3,3,3-trifluoro-2-hydroxy-2-(3-methylphenyl)propanoyl]piperidin-4-yl}oxy)piperidin-1-yl]benzamide] | 25 | – | 102 | 176 | 3240
CNC(=O)c1ccc(N2CCC(OC3CCN(C(=O)C(O)(c4cccc(F)c4)C(F)(F)F)CC3)CC2)cc1Cl (stereo not shown) [Example 7-30, 2-chloro-N-methyl-4-[4-({1-[3,3,3-trifluoro-2-(3-fluorophenyl)-2-hydroxypropanoyl]piperidin-4-yl}oxy)piperidin-1-yl] benzamide] | 50 | – | 120 | 91 | 3790
CNC(=O)c1ccc(N2CCC(OC3CCN(C(=O)C(O)(c4cccc(Cl)c4)C(F)(F)F)CC3)CC2)cc1Cl (stereo not shown) [Example 7-31, 2-chloro-4-[4-({1-[2-(3-chlorophenyl)-3,3,3-trifluoro-2-hydroxypropanoyl]piperidin-4-yl}oxy)piperidin-1-yl]-N-methylbenzamide] | 40 | – | 112 | 52 | 1580
CNC(=O)c1ccc(N2CCC(OC3CCN(C(=O)C(O)(c4cccc(OC)c4)C(F)(F)F)CC3)CC2)cc1Cl (stereo not shown) [Example 7-32, 2-chloro-N-methyl-4-[4-({1-[3,3,3-trifluoro-2-hydroxy-2-(3-methoxyphenyl)propanoyl]piperidin-4-yl}oxy)piperidin-1-yl]benzamide] | 18 | – | 92 | 184 | 4240
